US12233114B2, “Method for treating diabetes” (Novo Nordisk A/S, priority 2016, dated 2025)

Key:
[1] = system: adult human subjects with type 2 diabetes that were at high risk for cardiovascular events; experiment: Cardiovascular outcomes trial (DEVOTE): insulin degludec vs insulin glargine, time to first MACE; format: in vivo; conditions: for Hazard Ratio (95% CI), time to first MACE: insulin degludec vs insulin glargine
Description: This trial concerned incidence of cardiovascular events in adult human subjects with type 2 diabetes that were at high risk for cardiovascular events, including such subjects with existing cardiovascular disease. The primary objective of this trial was to confirm the cardiovascular safety of insulin degludec (Tresiba®) compared to that of insulin glargine (Lantus®). The secondary objective was to assess efficacy of insulin degludec on markers of glycaemic control and to assess safety on other parameters in subjects with type 2 diabetes that were at high risk for cardiovascular events.
An 18-month recruitment period was planned. […] Subjects were randomised 1:1 in a double-blinded manner to receive blinded insulin degludec or blinded insulin glargine, each added to standard of care. Subjects continued their current antidiabetic therapy except for the basal insulin component (if any), which was replaced by the investigational product. Treatment with bolus insulin was allowed.
Subjects not currently on insulin were to initiate basal insulin at a dose of 10 units OD given between dinner and bedtime. Subjects receiving basal insulin OD were to transfer unit-to-unit from their previous basal insulin dose. Subjects receiving twice-daily (or more) basal insulin transferred to an OD regimen and the pre-trial total basal insulin dose was reduced by 20-30% in accordance with the label for insulin glargine. For subjects receiving premixed/biphasic insulin OD, the basal component was calculated and transferred unit-to-unit to investigational product OD. The bolus insulin component was calculated and transferred unit-to-unit to bolus insulin and given at the most appropriate meal at the investigator's discretion. For subjects receiving premixed/biphasic insulin twice daily (or more), the total basal component was calculated, reduced by 20-30% and transferred to investigational product OD; the bolus component was to be calculated and transferred to insulin aspart and dosed with the most appropriate meals at the investigator's discretion. Subjects treated with bolus insulin as part of their current insulin regimen could be transferred to insulin aspart unit-to-unit from their previous bolus insulin dose, at the investigator's discretion.
Subjects adjusted their basal insulin dose weekly, aiming for a pre-breakfast (fasting) SMPG value of 71-90 mg/dL (4.0-5.0 mmol/L) by using the algorithm in Table 6. The basal dose was adjusted based on the lowest of three pre-breakfast SMPG values, preferably measured two days prior to dose adjustment and on the day of the dose adjustment. No maximum dose was specified. The investigators were to guide the subjects in adjusting their insulin at clinic visits and phone contacts. Investigators and subjects were recommended to follow the basal insulin titration algorithm. Importantly, however, the decision of adjustment of insulin doses was to be based on all available information, such as symptoms of hypoglycaemia and hyperglycaemia, previous responses to dose adjustments and SMPG values other than those required as per protocol.
Intensification with bolus insulin and other antidiabetic treatments was allowed during the course of the trial. The starting dose of bolus insulin was 4 units per relevant meal. […] Titration of bolus insulin could also be done based on carbohydrate counting. This was to be done at the investigator's discretion.
Subjects received insulin degludec or insulin glargine by subcutaneous administrations once daily in addition to the subject's standard treatment. Basal insulin was injected in the thigh, the upper arm (deltoid area) or the abdominal wall. The formulations were administered in the form of an aqueous solution comprising insulin degludec or insulin glargine, using identical 100 units/mL, 10-mL vials and 1-mL syringes.
The results of this trial may be presented herein as a number or fraction of subjects experiencing an event.

[2] = system: human subjects with T2DM inadequately controlled on insulin glargine in combination with metformin; experiment: Example 3: 26-week open-label trial, IDegLira vs IGlar, both in combination with metformin; format: in vivo; conditions: 26 weeks of treatment
Experimental: A 26-week multinational, multi-centre, open-label, two-arm parallel, randomised, treat-to-target trial in 557 human subjects with T2DM inadequately controlled on insulin glargine (IGlar, Lantus®) at a daily dose between 20-50 units (both inclusive) in combination with metformin was carried out. The primary objective was to confirm the efficacy of IDegLira in controlling glycaemia in human subjects with T2DM on previous treatment with IGlar. The secondary objective was to compare safety of IDegLira to IGlar after 26 weeks of treatment and to confirm superiority of IDegLira versus IGlar after 26 weeks of treatment on one or more of the following: change from baseline in HbA1c, confirmed hypoglycaemia, change from baseline in body weight.
IGlar was given at a start dose equal to the pre-trial daily dose of IGlar (dose-to-dose switch) and was titrated according to a predefined titration algorithm with no maximum dose.
The trial included a screening visit to assess subjects' eligibility and weekly visits/phone contacts during the 26-week treatment period.
Subjects randomised to treatment with IDegLira discontinued the pre-trial IGlar treatment prior to initiating IDegLira treatment with a start dose of 16 dose steps, equivalent to 16 units insulin degludec and 0.6 mg liraglutide. […] Subjects randomised for treatment with IGlar […] on the pre-trial, stable IGlar treatment prior to initiating IGlar treatment with a start dose of IGlar equal to the pretrial daily dose (dose-to-dose switch). No predefined maximum dose was specified for IGlar treatment.
Subjects received IDegLira or IGlar by subcutaneous administration once daily in addition to metformin. […] IGlar was to be injected according to the approved label and using the pre-trial dosing time and injection site throughout the trial.

[3] = system: human subjects with type 2 diabetes inadequately controlled with basal insulin and metformin; conditions: in vivo
Experimental: (§1) A 26-week randomised, parallel two-arm, double-blind, multi-centre, multinational, treat-to-target trial in 413 human subjects with type 2 diabetes inadequately controlled with basal insulin and metformin with or without SU or glinides was carried out comparing the efficacy and safety of insulin degludec+liraglutide (Xultophy®, IDegLira) once daily with insulin degludec (Tresiba®, IDeg) once daily both added on to metformin. […] The secondary objective was to compare the overall efficacy and safety parameters of IDegLira and IDeg after 26 weeks of treatment. All trial endpoints were collected and assessed throughout the entire duration of the trial.
(§2) Eligible subjects were randomised 1:1 to either once daily IDegLira or once daily IDeg, both in combination with metformin. […] For each subject, the duration of the trial was to be approximately 29 weeks: up to 2 weeks between screening and first treatment, 26 weeks of treatment and at least 1 week of wash-out at the end of the trial.
(§3) The IDegLira dosing unit is defined as a dose step. One (1) IDegLira dose step consists of 1 unit insulin degludec and 0.036 mg liraglutide. Treatment with IDegLira was initiated at 16 dose steps containing 16 units insulin degludec and 0.6 mg liraglutide. Adjustment of the IDegLira dose was performed twice weekly based on the mean of 3 preceding daily fasting SMPG values on 3 consecutive days. Adjustments occurred in 2 dose steps aiming at a fasting glycaemic target of 4.0-5.0 mmol/L (72-90 mg/dL). The maximum allowed dose was 50 dose steps (50 units IDeg/1.8 mg liraglutide). IDeg treatment was initiated with 16 units, and titrated twice weekly to the fasting glycaemic target of 4.0-5.0 mmol/L (72-90 mg/dL) based on the mean fasting SMPG from 3 proceeding measurements as described for IDegLira. The maximum allowed dose was 50 units.
(§4) Subjects received IDegLira or IDeg by subcutaneous administration in addition to metformin. IDegLira or IDeg was injected subcutaneously in the thigh, upper arm (deltoid region) or abdomen once daily preferably at the same time every day. The injection area chosen were to remain unchanged throughout the trial, but rotation within the area was recommended.

[4] = system: adult human subjects with type 2 diabetes that were at high risk for cardiovascular events; experiment: CV risk score model and subgroup analysis of MACE based on the DEVOTE trial; format: in vivo; design: key to Estimate (risk of MACE with IDeg compared to IGlar): hazard ratio of MACE, IDeg vs IGlar; conditions: for Estimated hazard ratio (HR) for MACE by CV risk score: IDeg/IGlar
Description: Based on the DEVOTE trial, a cardiovascular (CV) risk score has been developed for individuals with established cardiovascular risk. This risk score was developed using available medical history, baseline information and cardiovascular events occurring during the trial. […] The variables are listed in descending order according to their impact on the overall risk of major adverse cardiovascular events (MACE), here consisting of cardiovascular death, non-fatal myocardial infarction, or non-fatal stroke. The combination of these variables yields an algorithm that can be used to determine the risk of future MACEs and to determine the benefit of being treated with IDeg compared to IGlar.
The CV risk score and estimated MACE hazard ratio for CV risk scores by quartiles based on number of events are presented in FIG. 1. […] This benefit is seen regardless of which of the individual predictors contribute to the high score.
For example, subjects with a BMI ≥30 kg/m^2 and diastolic blood pressure ≥80 mmHg, and subjects with a diastolic blood pressure ≥80 mmHg who were treated with statins would have a benefit with IDeg compared to IGlar in terms of risk of MACE (Table 11).

[5] = system: human subjects with type 2 diabetes inadequately controlled with basal insulin and metformin; experiment: Example 2: 26-week double-blind trial, IDegLira vs IDeg, both added on to metformin; conditions: 26 weeks of treatment
Experimental: as §1, §2, §3, §4

## IGlar: Insulin glargine (Lantus®), commercially available basal insulin, active comparator
[1]; all subjects
  n, number of subjects with a first MACE: 356
  proportion of subjects with a first MACE: 9.3%
[1]; subgroup Africa
  n, number of subjects with a first MACE: 18
  proportion of subjects with a first MACE: 14.4%
[1]; subgroup Asia
  n, number of subjects with a first MACE: 31
  proportion of subjects with a first MACE: 9.4%
[1]; subgroup Female
  n, number of subjects with a first MACE: 131
  proportion of subjects with a first MACE: 9.1%
[1]; subgroup Male
  n, number of subjects with a first MACE: 225
  proportion of subjects with a first MACE: 9.5%
[2]
  Mean body weight increase: 1.8 kg
  proportion of subjects experiencing confirmed hypoglycaemic episodes during the trial: 49.1%
  ΔDiastolic blood pressure (change from baseline): −1.4 mmHG
  ΔHeart rate (change from baseline): −0.2 bpm
  ΔSystolic blood pressure (change from baseline): −0.2 mmHG

## N^εB29—(N^α—(HOOC(CH2)14CO)-γ-Glu) desB30 human insulin [IDeg]
[1]; all subjects
  n, number of subjects with a first MACE: 325
  proportion of subjects with a first MACE: 8.5%
[1]; all subjects, MACE = CV death, non-fatal MI, non-fatal stroke, Cox model
  Hazard Ratio (95% CI), time to first MACE: 0.91 (0.78;1.06)
[1]; subgroup Africa
  n, number of subjects with a first MACE: 6
  proportion of subjects with a first MACE: 4.6%
[1]; subgroup Asia
  n, number of subjects with a first MACE: 13
  proportion of subjects with a first MACE: 4.1%
[1]; subgroup Female
  n, number of subjects with a first MACE: 99
  proportion of subjects with a first MACE: 7.0%
[1]; subgroup Male
  n, number of subjects with a first MACE: 226
  proportion of subjects with a first MACE: 9.4%
[1]; subgroup Region: Africa
  Hazard Ratio (95% CI), time to first MACE: 0.30 (0.12; 0.77)
[1]; subgroup Region: Asia
  Hazard Ratio (95% CI), time to first MACE: 0.42 (0.22; 0.81)
[1]; subgroup Sex: Female
  Hazard Ratio (95% CI), time to first MACE: 0.76 (0.59; 0.99)
[1]; subgroup Sex: Male
  Hazard Ratio (95% CI), time to first MACE: 0.99 (0.83; 1.20)
[3]
  Adverse event and tolerability profiles: consistent with previous findings
  ΔHeart rate (change from baseline): −0.6 bpm
[4]; CV risk score quartile High
  Estimated hazard ratio (HR) for MACE by CV risk score: 1.04
[4]; CV risk score quartile Low
  Estimated hazard ratio (HR) for MACE by CV risk score: 1.02
[4]; CV risk score quartile Moderate
  Estimated hazard ratio (HR) for MACE by CV risk score: 0.89
[4]; CV risk score quartile Very High
  Estimated hazard ratio (HR) for MACE by CV risk score: 0.67
[4]; patients who have a high CV risk score
  hazard ratio IDeg/IGlar, risk of MACE: < 1
[4]; subgroup Age 65-75 years AND systolic blood pressure <140 mmHg
  Estimate (risk of MACE with IDeg compared to IGlar): 0.70
[4]; subgroup Age <65 years AND diastolic blood pressure ≥80 mmHg
  Estimate (risk of MACE with IDeg compared to IGlar): 0.64
[4]; subgroup Age <65 years AND treated with statins
  Estimate (risk of MACE with IDeg compared to IGlar): 0.75
[4]; subgroup BMI ≥30 kg/m^2 AND diastolic blood pressure ≥80 mmHg
  Estimate (risk of MACE with IDeg compared to IGlar): 0.68
[4]; subgroup Diastolic blood pressure <90 mmHg AND HDL ≥1.0 mmol/L
  Estimate (risk of MACE with IDeg compared to IGlar): 0.80
[4]; subgroup Diastolic blood pressure ≥80 mmHg AND treated with statins
  Estimate (risk of MACE with IDeg compared to IGlar): 0.73
[4]; subgroup Diastolic blood pressure ≥80 mmHg AND triglycerides >1.7 mmol/L
  Estimate (risk of MACE with IDeg compared to IGlar): 0.69
[4]; subgroup Established CV risk AND HDL ≥1.0 mmol/L
  Estimate (risk of MACE with IDeg compared to IGlar): 0.78
[4]; subgroup Established CV risk AND diastolic blood pressure ≥80 mmHg
  Estimate (risk of MACE with IDeg compared to IGlar): 0.76
[4]; subgroup Established CV risk AND pulse ≥70 bpm
  Estimate (risk of MACE with IDeg compared to IGlar): 0.80
[4]; subgroup Height <170 cm AND treated with statins
  Estimate (risk of MACE with IDeg compared to IGlar): 0.75
[4]; subgroup Non-White AND diastolic blood pressure <90 mmHg
  Estimate (risk of MACE with IDeg compared to IGlar): 0.64
[4]; subgroup Not Hispanic or Latino AND Non-White
  Estimate (risk of MACE with IDeg compared to IGlar): 0.64
[4]; subgroup Not Hispanic or Latino AND triglycerides >1.7 mmol/L
  Estimate (risk of MACE with IDeg compared to IGlar): 0.79
[4]; subgroup Previous smoker AND age <65 years
  Estimate (risk of MACE with IDeg compared to IGlar): 0.73
[4]; subgroup Previous smoker AND cholesterol ≥3 mmol/L
  Estimate (risk of MACE with IDeg compared to IGlar): 0.79
[4]; subgroup Previous smoker AND diastolic blood pressure ≥80 mmHg
  Estimate (risk of MACE with IDeg compared to IGlar): 0.66
[4]; subgroup Previous smoker AND treated with statins
  Estimate (risk of MACE with IDeg compared to IGlar): 0.79
[4]; subgroup Previous smoker AND triglycerides >1.7 mmol/L
  Estimate (risk of MACE with IDeg compared to IGlar): 0.73
[4]; subgroup Pulse ≥70 bpm AND diastolic blood pressure ≥80 mmHg
  Estimate (risk of MACE with IDeg compared to IGlar): 0.74
[4]; subgroup Pulse ≥70 bpm AND triglycerides >1.7 mmol/L
  Estimate (risk of MACE with IDeg compared to IGlar): 0.76
[4]; subgroup Pulse ≥70 mmHg AND treated with statins
  Estimate (risk of MACE with IDeg compared to IGlar): 0.72
[4]; subgroup Systolic blood pressure <140 mmHg AND HDL ≥1.0 mmol/L
  Estimate (risk of MACE with IDeg compared to IGlar): 0.73
[4]; subgroup Triglycerides >1.7 mmol/L AND HDL ≥1.0 mmol/L
  Estimate (risk of MACE with IDeg compared to IGlar): 0.69
[4]; subgroup Triglycerides >1.7 mmol/L AND treated with statins
  Estimate (risk of MACE with IDeg compared to IGlar): 0.78
[5]
  ΔDiastolic blood pressure (change from baseline): −0.7 mmHG
  ΔSystolic blood pressure (change from baseline): −1.7 mmHG
